According to patent US6462037B1, “1,4-benzodiazepin-2-ones useful as HIV reverse transcriptase inhibitors” (Bristol-Myers Squibb Pharma Company, priority 1999, dated 2002):

| SMILES | melting point [°C] |
| --- | --- |
| O=C1C=NC(Cc2ccccn2)(C(F)(F)F)c2cc(Cl)ccc2N1 (centres unmarked) [compound 202, 7-Chloro-5-(2-pyridylmethyl)-1,5-dihydro-5-(trifluoromethyl)-1,4-benzodiazepin-2-one] | 137 to 140 |
| O=C1CN(CCc2ccccc2Cl)C(C(F)(F)F)c2cc(Cl)ccc2N1 (centres unmarked) [compound 138, 7-Chloro-4-(2-(2-chlorophenyl)ethyl)-1,5-dihydro-5-(trifluoromethyl)-1,4-benzodiazepin-2-one] | 161 to 162 |
| Cc1cccc(F)c1CN1CC(=O)Nc2ccc(Cl)cc2C1C(F)(F)F (centres unmarked) [compound 180, 7-Chloro-4-(2-fluoro-6-methylbenzyl)-1,5-dihydro-5-(trifluoromethyl)-1,4-benzodiazepin-2-one] | 196 to 197 |
| C#CCN1CC(=O)Nc2ccc(Cl)cc2C1C(F)(F)F (centres unmarked) [compound 165, 7-Chloro-4-(2-propynyl)-1,5-dihydro-5-(trifluoromethyl)-1,4-benzodiazepin-2-one] | 181 to 182 |
| CC(C)=CCN1CC(=O)Nc2ccc(Cl)cc2C1C(F)(F)F (centres unmarked) [compound 101, 7-Chloro-4-(3-methyl-2-butenyl)-1,5-dihydro-5-(trifluoromethyl)-1,4-benzodiazepin-2-one] | 120 to 125 |
| O=C1C=NC(/C=C\C2CC2)(C(F)(F)F)c2cc(F)ccc2N1 (centres unmarked) [compound 200, 7-Fluoro-5-(2-cyclopropyl-Z-ethenyl)-1,5-dihydro-5-(trifluoromethyl)-1,4-benzodiazepin-2-one] | 158 to 160 |
| O=C1CN(Cc2ccco2)C(C(F)(F)F)c2cc(Cl)ccc2N1 (centres unmarked) [compound 124, 7-Chloro-4-(2-furanylmethyl)-1,5-dihydro-5-(trifluoromethyl)-1,4-benzodiazepin-2-one] | 143 to 145 |
| CCCCCN1CC(=O)Nc2ccc(Cl)cc2C1C(F)(F)F (centres unmarked) [compound 111, 7-Chloro-4-pentyl-1,5-dihydro-5-(trifluoromethyl)-1,4-benzodiazepin-2-one] | 94 to 96 |
| O=C1C=NC(C#CC2CC2)(C(F)(F)F)c2cc(F)ccc2N1 (centres unmarked) [compound 199, 7-Fluoro-5-(cyclopropylethynyl)-1,5-dihydro-5-(trifluoromethyl)-1,4-benzodiazepin-2-one] | 175 to 178 |
| O=C1C=N[C@](C#CC2CC2)(C(F)(F)F)c2cc(Cl)ccc2N1 [compound 174, 7-Chloro-5(S)-(cyclopropylethynyl)-1,5-dihydro-5-(trifluoromethyl)-1,4-benzodiazepin-2-one] | 104 to 105 |
| O=C1CN(Cc2cc(Br)cs2)C(C(F)(F)F)c2cc(Cl)ccc2N1 (centres unmarked) [compound 150, 7-Chloro-4-(4-bromothien-2-ylmethyl)-1,5-dihydro-5-(trifluoromethyl)-1,4-benzodiazepin-2-one] | 173 to 174 |
| O=C1CN(C(=O)c2ccccc2)C(C(F)(F)F)c2cc(Cl)ccc2N1 (centres unmarked) [compound 139, 7-Chloro-4-benzoyl-1,5-dihydro-5-(trifluoromethyl)-1,4-benzodiazepin-2-one] | 257 to 258 |
| CC(C)CCC1(C(F)(F)F)N=CC(=O)Nc2ccc(Cl)cc21 (centres unmarked) [compound 188, 7-Chloro-5-(3-methylbutyl)-1,5-dihydro-5-(trifluoromethyl)-1,4-benzodiazepin-2-one] | 150 to 152 |
| O=C1CN(Cc2cccc(Cl)n2)C(C(F)(F)F)c2cc(Cl)ccc2N1 (centres unmarked) [compound 105, 7-Chloro-4-(6-chloro-2-pyridylmethyl)-1,5-dihydro-5-(trifluoromethyl)-1,4-benzodiazepin-2-one] | 184 to 186 |
| COc1cccc(F)c1CN1CC(=O)Nc2ccc(F)c(F)c2C1C(F)(F)F (centres unmarked) [compound 132, 6,7-Difluoro-4-(2-fluoro-6-methoxybenzyl)-1,5-dihydro-5-(trifluoromethyl)-1,4-benzodiazepin-2-one] | 168 to 170 |
| CCCN1CC(=O)Nc2ccc(Cl)cc2C1C(F)(F)F (centres unmarked) [compound 106, 7-Chloro-4-propyl-1,5-dihydro-5-(trifluoromethyl)-1,4-benzodiazepin-2-one] | 123 to 124 |

| SMILES | melting point [°C] |
| --- | --- |
| CCCCCC1(C(F)(F)F)N=C(CC(C)C)C(=O)Nc2ccc(Cl)cc21 (centres unmarked) [compound 176, 7-Chloro-3-(2-methylpropyl)-5-pentyl-1,5-dihydro-5-(trifluoromethyl)-1,4-benzodiazepin-2-one] | 94 to 95 |
| COc1ccc(OC)c(CN2CC(=O)Nc3ccc(Cl)cc3C2C(F)(F)F)c1 (centres unmarked) [compound 144, 7-Chloro-4-(2,5-dimethoxybenzyl)-1,5-dihydro-5-(trifluoromethyl)-1,4-benzodiazepin-2-one] | 182 to 183 |
| CCC#CCN1CC(=O)Nc2ccc(Cl)cc2C1C(F)(F)F (centres unmarked) [compound 160, 7-Chloro-4-(2-pentynyl)-1,5-dihydro-5-(trifluoromethyl)-1,4-benzodiazepin-2-one] | 114 to 115 |
| CCCCCCC1(C(F)(F)F)N=CC(=O)Nc2ccc(Cl)cc21 (centres unmarked) [compound 192, 7-Chloro-5-hexyl-1,5-dihydro-5-(trifluoromethyl)-1,4-benzodiazepin-2-one] | 115 to 120 |
| O=C1CN(Cc2ccsc2)C(C(F)(F)F)c2cc(Cl)ccc2N1 (centres unmarked) [compound 123, 7-Chloro-4-(3-thienylmethyl)-1,5-dihydro-5-(trifluoromethyl)-1,4-benzodiazepin-2-one] | 148 to 150 |
| COc1cccnc1CN1CC(=O)Nc2ccc(Cl)cc2C1C(F)(F)F (centres unmarked) [compound 126, 7-Chloro-4-(3-methoxy-2-pyridylmethyl)-1,5-dihydro-5-(trifluoromethyl)-1,4-benzodiazepin-2-one] | 146 to 148 |
| CCCCCC1(C(F)(F)F)N=C(C)C(=O)Nc2ccccc21 (centres unmarked) [compound 181, 3-Methyl-5-pentyl-1,5-dihydro-5-(trifluoromethyl)-1,4-benzodiazepin-2-one] | 139 to 140 |
| N#Cc1cccc(CN2CC(=O)Nc3ccc(Cl)cc3C2C(F)(F)F)c1 (centres unmarked) [compound 120, 7-Chloro-4-(3-cyanobenzyl)-1,5-dihydro-5-(trifluoromethyl)-1,4-benzodiazepin-2-one] | 241 to 242 |
| CC(C)CCC1(C(F)(F)F)N=CC(=O)Nc2ccc(Cl)cc21 (centres unmarked) [compound 189, 7-Chloro-5-(3-methylbutyl)-1,5-dihydro-5-(trifluoromethyl)-1,4-benzodiazepin-2-one] | 151 to 153 |
| COc1ccc(OC)c(CN2CC(=O)Nc3ccc(Cl)cc3C2C(F)(F)F)c1F (centres unmarked) [compound 145, 7-Chloro-4-(2,5-dimethoxy-6-fluorobenzyl)-1,5-dihydro-5-(trifluoromethyl)-1,4-benzodiazepin-2-one] | 121 to 122 |
| O=C1C=NC(/C=C/C2CC2)(C(F)(F)F)c2cc(Cl)ccc2N1 (centres unmarked) [compound 191, 7-Chloro-5-(2-cyclopropyl-E-ethenyl)-1,5-dihydro-5-(trifluoromethyl)-1,4-benzodiazepin-2-one] | 150 to 153 |
| O=C1C=NC(CCCC(F)(F)F)(C(F)(F)F)c2cc(Cl)ccc2N1 (centres unmarked) [compound 197, 7-Chloro-5-(4,4,4-trifluorobutyl)-1,5-dihydro-5-(trifluoromethyl)-1,4-benzodiazepin-2-one] | 178 to 180 |
| C=CCCCN1CC(=O)Nc2ccc(Cl)cc2C1C(F)(F)F (centres unmarked) [compound 152, 7-Chloro-4-(4-penten-1-yl)-1,5-dihydro-5-(trifluoromethyl)-1,4-benzodiazepin-2-one] | 86 to 87 |
| O=C1CN(CCCc2ccccc2)C(C(F)(F)F)c2cc(Cl)ccc2N1 (centres unmarked) [compound 109, 7-Chloro-4-(3-phenylpropyl)-1,5-dihydro-5-(trifluoromethyl)-1,4-benzodiazepin-2-one] | 89 to 91 |
| CCCCCCN1CC(=O)Nc2ccc(Cl)cc2C1C(F)(F)F (centres unmarked) [compound 107, 7-Chloro-4-hexyl-1,5-dihydro-5-(trifluoromethyl)-1,4-benzodiazepin-2-one] | 87 to 88 |
| COc1cccc(CN2CC(=O)Nc3ccc(Cl)cc3C2C(F)(F)F)c1 (centres unmarked) [compound 118, 7-Chloro-4-(3-methoxybenzyl)-1,5-dihydro-5-(trifluoromethyl)-1,4-benzodiazepin-2-one] | 171 to 172 |
